What was measured:
[1] = mouse, in vivo; cited from earlier work
[2] = Blood residence time of ^64Cu-Tz-SarAr in healthy mice; format: in vivo, athymic nude mice; conditions: for Activity in Blood: healthy mice
Description: The radioligand was excreted rapidly via the bladder and kidneys, and the activity concentrations in the large intestine—a critical source of background noise in clinical colorectal cancer imaging—remained remarkably low (e.g., 0.07±0.01% ID/g at 1 h post-injection). Additional experiments were conducted to further interrogate the in vivo performance of ^64Cu-Tz-SarAr.

Structure (SMILES) | t1/2 of clearance through the intestinal tract [1] | half-life of clearance from the blood ([2]; biexponential fit, greater than 99% of the radioligand) | Activity in Blood ([2]; 15 min) | Activity in Blood ([2]; 30 min) | Activity in Blood ([2]; 1 h) | Activity in Blood ([2]; 4 h) | Activity in Blood ([2]; 12 h) | Activity in Blood ([2]; 24 h) | blood residence time ([2]; vast majority of the radioligand)
O=C([O-])CN1CCN(CC(=O)[O-])CC(Cc2ccc(NC(=O)CCCC(=O)NCc3ccc(-c4nncnn4)cc3)cc2)N(CC(=O)[O-])CC1.[64Cu+2] (stereo not drawn) [^64Cu-Tz-NOTA] | ~4 h |  |  |  |  |  |  |  | 
NC12CNCCNCC(NCc3ccc(CNC(=O)CCCC(=O)NCc4ccc(-c5nncnn5)cc4)cc3)(CNCCNC1)CNCCNC2.[64Cu+2] [^64Cu-Tz-SarAr] |  | ~0.267 h | 3.02 ± 1.10 % ID/g | 1.55 ± 0.21 % ID/g | 0.42 ± 0.11 % ID/g | 0.15 ± 0.01 % ID/g | 0.12 ± 0.03 % ID/g | 0.06 ± 0.01 % ID/g | ~16 min
